Reference: article PMC12811997 (Chemmedchem, 2025)
Converted amounts (≈) assume the structure as drawn. Structures can show the parent of a compound that is named as a salt. Where two headings read alike, the source gives them in different places.

How the values were obtained:
[1] = molecular target: T1, SARS‐CoV‐2 RdRp complex (nsp12, nsp7, nsp8) (Severe acute respiratory syndrome coronavirus 2, UniProt P0DTD1); test: biochemical; assay type: biochemical; conditions: for remaining activity at 10 µM: read-out: RA ± SD (residual activity of RdRp), at 10 μM concentration of screened compounds, AUC with compound / AUC of noninhibited reaction
[2] = molecular target: T1, SARS‐CoV‐2 RdRp complex (nsp12, nsp7, nsp8); parameters: method as in PMID 39140451; conditions: at 10 μM concentration of screened compound; ref [10]; cited from earlier work
SARS‐CoV‐2 = test: microbe, parasite or virus in culture; assay type: cell-based
in vitro = conditions: human
Method: Cytotoxicity was evaluated by incubating the same two‐fold serial dilutions of each compound with Calu‐3 cells as above but without the virus. Following 3 days of incubation at 37 °C in 5% CO2, the cell viability was determined by the addition of XTT solution as above. The compound cytotoxic concentrations resulting in a 50% reduction of absorbance (CC50) were calculated from plots of the percentage of absorbance versus log10 of drug concentration as above.

Kinetic solubility = conditions: for kinetic solubility: as restated in Conclusions
[3] = Severe acute respiratory syndrome coronavirus 2, Calu‐3 cells infected with SARS‐CoV‐2, concentration required to reduce viral cytopathic effect by 50%, read-out: EC50

| SMILES | remaining activity at 10 µM [1] [%] | EC50 (SARS‐CoV‐2; [3]) [µM] | CC50 at 3 days (in vitro) [µM] | solubility kinetic (Kinetic solubility; kinetic from dmso stock) [µM] | also measured |
| --- | --- | --- | --- | --- | --- |
| CN1CCN(Cc2cc(NC(=O)Nc3cc(Cl)cc(Cl)c3)ccc2C(F)(F)F)CC1 [Compound 48, 1‐(3,5‐Dichlorophenyl)‐3‐(3‐((4‐Methylpiperazin‐1‐Yl)Methyl)‐4‐(Trifluoromethyl)Phenyl)Urea Hydrochloride] | 100 |  |  |  |  |
| O=C(Nc1cc(Cl)cc(Cl)c1)Nc1cccc(C(F)(F)F)c1 [Compound 1, 1‐(3,5‐dichlorophenyl)‐3‐(3‐(trifluoromethyl)phenyl)urea] |  |  |  |  | RA (residual activity of RdRp) [2]: 45% |
| O=C(Nc1cc(Cl)cc(Cl)c1)Nc1ccccc1C(F)(F)F [Compound 14, 1‐(3,5‐Dichlorophenyl)‐3‐(2‐(Trifluoromethyl)Phenyl)Urea] | 100 |  |  |  |  |
| Cl.O=C(Nc1cc(Cl)cc(Cl)c1)Nc1ccc(CN2CCOCC2)c(C(F)(F)F)c1 [Compound 39, 1‐(3,5‐Dichlorophenyl)‐3‐(4‐(Morpholinomethyl)‐3‐(Trifluoromethyl)Phenyl)Urea Hydrochloride] | 36 ± 7 | > 8.4 | 8.4 ± 1.1 | 4.2 ± 0.3 | kinetic solubility (Kinetic solubility): 4.2 µM L^−1 |
| NC(=O)c1c(Cl)cc(Cl)cc1NC(=O)Nc1cccc(C(F)(F)F)c1 [Compound 28, 2,4‐Dichloro‐6‐(3‐(3‐(Trifluoromethyl)Phenyl)Ureido)Benzamide] | 100 |  |  |  |  |
| Cl.NC(=O)C1CN(Cc2ccc(NC(=O)Nc3cc(Cl)cc(Cl)c3)cc2C(F)(F)F)CCO1 (stereo not drawn) [Compound 72, 4‐(4‐(3‐(3,5‐Dichlorophenyl)Ureido)‐2‐(Trifluoromethyl)Benzyl)Morpholine‐2‐Carboxamide Hydrochloride] | 52 ± 5 | > 12 | 12 ± 0.51 | 4.7 ± 0.1 |  |
| CN1CCN(Cc2ccc(NC(=O)Nc3cc(Cl)cc(Cl)c3)cc2C(F)(F)F)CC1.Cl [Compound 40, 1‐(3,5‐Dichlorophenyl)‐3‐(4‐((4‐Methylpiperazin‐1‐Yl)Methyl)‐3‐(Trifluoromethyl)Phenyl)Urea Hydrochloride] | ~65 | > 13 | 13 ± 0.8 | 43.5 ± 0.8 | kinetic solubility (Kinetic solubility): 43.5 µM L^−1 |
| NC(=O)c1ccc(NC(=O)Nc2cc(Cl)cc(Cl)c2)cc1C(F)(F)F [Compound 24, 4‐(3‐(3,5‐Dichlorophenyl)Ureido)‐2‐(Trifluoromethyl)Benzamide] | ~65 | > 14 | 14 ± 1 | 32.5 ± 0.8 (≈ 12.7 µg/mL) | kinetic solubility (Kinetic solubility): 32.5 µM L^−1 |
| Cl.O=C(Nc1cc(Cl)cc(Cl)c1)Nc1ccc(C(F)(F)F)c(CN2CCOCC2)c1 [Compound 47, 1‐(3,5‐Dichlorophenyl)‐3‐(3‐(Morpholinomethyl)‐4‐(Trifluoromethyl)Phenyl)Urea Hydrochloride] | 65 ± 5 | > 5.3 | 5.3 ± 0.48 | < 2 |  |
| COC(=O)C1CN(Cc2ccc(NC(=O)Nc3cc(Cl)cc(Cl)c3)cc2C(F)(F)F)CCO1.Cl (stereo not drawn) [Compound 69, Methyl 4‐(4‐(3‐(3,5‐Dichlorophenyl)Ureido)‐2‐(Trifluoromethyl)Benzyl)Morpholine‐2‐Carboxylate Hydrochloride] | 42 ± 4 | > 34 | 34 ± 5.6 | < 2 |  |
| CN1CCN(Cc2c(Cl)cc(NC(=O)Nc3cccc(C(F)(F)F)c3)cc2Cl)CC1 [Compound 54, 1‐(3,5‐Dichloro‐4‐((4‐Methylpiperazin‐1‐Yl)Methyl)Phenyl)‐3‐(3‐(Trifluoromethyl)Phenyl)Urea Hydrochloride] | 79 ± 5 |  |  |  |  |
| Cl.O=C1CN(Cc2ccc(NC(=O)Nc3cc(Cl)cc(Cl)c3)cc2C(F)(F)F)CCN1 [Compound 70, 1‐(3,5‐Dichlorophenyl)‐3‐(4‐((3‐Oxopiperazin‐1‐Yl)Methyl)‐3‐(Trifluoromethyl)Phenyl)Urea Hydrochloride] | 63 ± 7 | > 9.5 | 9.5 ± 0.28 | 11.2 ± 0.07 |  |
| O=C(Nc1ccc(C(F)(F)F)cc1)Nc1cc(Cl)cc(Cl)c1 [Compound 13, 1‐(3,5‐Dichlorophenyl)‐3‐(4‐(Trifluoromethyl)Phenyl)Urea] | 34 ± 14 | > 0.29 | 0.29 ± 0.03 | < 2.1 |  |
| O=C(O)CNCc1ccc(NC(=O)Nc2cc(Cl)cc(Cl)c2)cc1C(F)(F)F [Compound 62, Lithium (4‐(3‐(3,5‐Dichlorophenyl)Ureido)‐2‐(Trifluoromethyl)Benzyl)Glycinate] | 70 ± 10 |  |  |  |  |
| O=C(Nc1cccc(C(F)(F)F)c1)Nc1nc2cc(Cl)c(Cl)cc2[nH]1 [Compound 3] |  |  |  |  | RA (residual activity of RdRp) [2]: 49 ± 6% |
| Cl.O=C(Nc1cc(Cl)cc(Cl)c1)Nc1ccc(CN2CCCC2)c(C(F)(F)F)c1 [Compound 38, 1‐(3,5‐Dichlorophenyl)‐3‐(4‐(Pyrrolidin‐1‐Ylmethyl)‐3‐(Trifluoromethyl)Phenyl)Urea Hydrochloride] | 46 ± 2 | > 19 | 19 ± 1 | < 2 |  |

| SMILES | remaining activity at 10 µM [1] [%] | EC50 (SARS‐CoV‐2; [3]) [µM] | CC50 at 3 days (in vitro) [µM] | solubility kinetic (Kinetic solubility; kinetic from dmso stock) [µM] | also measured |
| --- | --- | --- | --- | --- | --- |
| O=C(Nc1ccc(C(F)(F)F)nc1)Nc1cc(Cl)cc(Cl)c1 [Compound 15, 1‐(3,5‐Dichlorophenyl)‐3‐(6‐(Trifluoromethyl)Pyridin‐3‐Yl)Urea] | 35 ± 9 | > 1.3 | 1.3 ± 0.13 |  |  |
| NC(=O)c1ccc(C(F)(F)F)cc1NC(=O)Nc1cc(Cl)cc(Cl)c1 [Compound 25, 2‐(3‐(3,5‐Dichlorophenyl)Ureido)‐4‐(Trifluoromethyl)Benzamide] | 100 |  |  |  |  |
| O=C(Nc1cccc(C(F)(F)F)c1)Nc1c(Cl)cccc1Cl [Compound 10, 1‐(2,6‐Dichlorophenyl)‐3‐(3‐(Trifluoromethyl)Phenyl)Urea] | 100 |  |  |  |  |
| O=C(Nc1cnc(C(F)(F)F)nc1)Nc1cc(Cl)cc(Cl)c1 [Compound 18, 1‐(3,5‐Dichlorophenyl)‐3‐(2‐(Trifluoromethyl)Pyrimid‐5‐Yl)Urea] | 42 ± 10 | > 1.1 | 1.1 ± 0.11 | 27 ± 6 (≈ 9.48 µg/mL) | effect in combination with remdesivir [1]: potentiates the effect of remdesivir; mode of inhibition ([1]; versus ATP, enzymatic study): competitive inhibitor of ATP; kinetic solubility (Kinetic solubility): 27 µM/L |
| Cl.O=C(Nc1cc(Cl)cc(Cl)c1)Nc1ccc(CN2CCS(=O)(=O)CC2)c(C(F)(F)F)c1 [Compound 68, 1‐(3,5‐Dichlorophenyl)‐3‐(4‐((1,1‐Dioxidothiomorpholino)Methyl)‐3‐(Trifluoromethyl)Phenyl)Urea Hydrochloride] | 37 ± 5 | > 5.9 | 5.9 ± 0.51 | 2.57 ± 0.04 |  |
| O=C(Nc1cc(Cl)cc(Cl)c1)Nc1ccc(C(F)(F)F)nn1 [Compound 17, 1‐(3,5‐Dichlorophenyl)‐3‐(6‐(Trifluoromethyl)Pyridazin‐3‐Yl)Urea] | 68 ± 9 |  |  |  |  |
| O=C(Nc1cc(Cl)cc(Cl)c1)Nc1ccc(C(F)(F)F)cn1 [Compound 16, 1‐(3,5‐Dichlorophenyl)‐3‐(5‐(Trifluoromethyl)Pyridin‐2‐Yl)Urea] | 100 |  |  |  |  |
| O=C(Nc1cc(Cl)cc(Cl)c1)Nc1cnc(C(F)(F)F)cn1 [Compound 19, 1‐(3,5‐Dichlorophenyl)‐3‐(5‐(Trifluoromethyl)Pyrazin‐2‐Yl)Urea] | 75 ± 8 |  |  |  |  |
| O=C(Nc1cc(Cl)cc(Cl)c1)Nc1ccc(CNCCO)c(C(F)(F)F)c1 [Compound 59, 1‐(3,5‐Dichlorophenyl)‐3‐(4‐(((2‐Hydroxyethyl)Amino)Methyl)‐3‐(Trifluoromethyl)Phenyl)Urea Hydrochloride] | 76 ± 11 |  |  |  |  |
| O=C(Nc1cccc(C(F)(F)F)c1)Nc1ccc(Cl)cc1Cl [Compound 9, 1‐(2,4‐Dichlorophenyl)‐3‐(3‐(Trifluoromethyl)Phenyl)Urea] | 64 ± 12 | > 6.9 | 6.9 ± 0.94 |  | solubility kinetic (Kinetic solubility): < 2 µM |
| Cl.O=C(Nc1cc(Cl)cc(Cl)c1)Nc1ccc(C(F)(F)F)c(CN2CCCC2)c1 [Compound 46, 1‐(3,5‐Dichlorophenyl)‐3‐(3‐(Pyrrolidin‐1‐Ylmethyl)‐4‐(Trifluoromethyl)Phenyl)Urea Hydrochloride] | 67 ± 7 | > 15 | ~15 | 11.9 ± 0.4 |  |
| NCc1ccc(NC(=O)Nc2cc(Cl)cc(Cl)c2)cc1C(F)(F)F [Compound 41, 1‐(4‐(Aminomethyl)‐3‐(Trifluoromethyl)Phenyl)‐3‐(3,5‐Dichlorophenyl)Urea Hydrochloride] | 78 ± 5 |  |  |  |  |
| COC(=O)CNCc1ccc(NC(=O)Nc2cc(Cl)cc(Cl)c2)cc1C(F)(F)F.Cl [Compound 61, Methyl (4‐(3‐(3,5‐Dichlorophenyl)Ureido)‐2‐(Trifluoromethyl)Benzyl)Glycinate Hydrochloride] | 43 ± 8 | > 8.4 | 8.4 ± 0.46 | 7 ± 0.6 | kinetic solubility (Kinetic solubility): 21 µM L^−1; increase in kinetic solubility compared with compound 39 (Kinetic solubility; relative to compound 39): 1.7 fold |
| COCCNCc1ccc(NC(=O)Nc2cc(Cl)cc(Cl)c2)cc1C(F)(F)F [Compound 58, 1‐(3,5‐Dichlorophenyl)‐3‐(4‐(((2‐Methoxyethyl)Amino)Methyl)‐3‐(Trifluoromethyl)Phenyl)Urea Hydrochloride] | 100 |  |  |  |  |
| O=C(Nc1cc(Cl)cc(Cl)c1)Nc1ccc(CN2CCOC(C(=O)[O-])C2)c(C(F)(F)F)c1.[Li+] (stereo not drawn) [Compound 71, Lithium 4‐(4‐(3‐(3,5‐Dichlorophenyl)Ureido)‐2‐(Trifluoromethyl)Benzyl)Morpholine‐2‐Carboxylate] | ~65 |  | 32 ± 0.77 | 71 ± 1 | EC50 (SARS‐CoV‐2; Severe acute respiratory syndrome coronavirus 2, Calu-3): > 32 µM; kinetic solubility (Kinetic solubility): 71 µM L^−1 |
